Data taken from patent publication US4981788A, “Novel acetylpolyamine amidohydrolase” (Kyowa Hakko Kogyo Co., Ltd., priority 1987, dated 1991).
“Also recorded” adds a separate entry of the source. Structures can show the parent of a compound that is named as a salt. Where two headings read alike, the source gives them in different places.

Experiments:
[1] = molecular target: T1, acetylpolyamine amidohydrolase (the present enzyme, partially purified product) (Mycoplana ramosa, UniProt Q48935); test: Effects of inhibitors and metal ions, partially purified present enzyme; type: biochemical, Mycoplana bullata; conditions: for Inhibition of the present enzyme (in words): partially purified product; for inhibition at 1000 µM: read-out: Relative activity in presence of inhibitor/metal ion, the present enzyme
T1 construct: novel acetylpolyamine amidohydrolase of the present invention accumulated within the grown cells; made in house; host or cells: Mycoplana (natural producer; cells grown in culture)
T1 sequence (Q48935 1-341): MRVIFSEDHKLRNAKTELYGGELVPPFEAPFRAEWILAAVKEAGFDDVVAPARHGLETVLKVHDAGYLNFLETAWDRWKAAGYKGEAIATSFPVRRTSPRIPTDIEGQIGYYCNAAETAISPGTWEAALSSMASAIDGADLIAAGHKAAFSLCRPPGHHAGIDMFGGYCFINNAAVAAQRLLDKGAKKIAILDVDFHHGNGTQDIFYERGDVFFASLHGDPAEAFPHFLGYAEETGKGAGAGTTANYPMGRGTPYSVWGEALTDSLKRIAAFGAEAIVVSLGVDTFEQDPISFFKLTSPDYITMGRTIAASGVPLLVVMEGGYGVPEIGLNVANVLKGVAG
Description: Activity of the present enzyme (partially purified products) is measured according to the following procedure. That is, 0.1 ml of an enzyme solution is added to a reagent solution consisting of 1.5 ml of 0.1 M phosphate buffer (pH 7.0), 0.05 ml of 50 mM acetylpolyamine, 0.4 U of putrescine oxidase (when acetylputrescine, acetylcadaverine or acetylspermidine is used as substrate) or polyamine oxidase (when acetylspermidine or acetylspermine is used as substrate), 0.5 ml of 2.4 mM 4-aminoantipyrine, 0.5 ml of 42 mM phenol and 20 U of peroxidase. The mixture is incubated at 37° C., and the absorbance of quinoneimine pigment formed at 500 nm is measured.
The effects of various inhibitors and metal ions upon the present enzyme and the other known enzymes were examined using acetylputrescine as substrate.

[2] = molecular target: T2, acetylpolyamine amidohydrolase (the present enzyme, product purified to homogeneity) (Mycoplana ramosa, UniProt Q48935); test: Effects of various compounds upon enzyme activity, product purified to homogeneity (Method 1); type: biochemical, Mycoplana bullata; conditions: for activity at 100 µM: read-out: Relative Activity (%) at 0.1 mM
T2 construct: novel acetylpolyamine amidohydrolase of the present invention accumulated within the grown cells; made in house; host or cells: Mycoplana (natural producer)
T2 sequence (Q48935 1-341): T1 sequence (Q48935 1-341)
Source text: [Method 1] (Standard assay)
In this standard method for measuring the activity of acetylpolyamine amidohydrolases, the enzyme being tested is allowed to react with acetylputrescine as substrate to produce putrescine, which is in turn oxidized with putrescine oxidase. Hydrogen peroxide thus formed is then subjected to oxidative condensation with phenol and 4-aminoantipyrine in the presence of horseradish peroxidase to form quinoneimine pigment. The rate of increase in the absorbance of a colored reaction solution at 500 nm is measured with a spectrophotometer.
(§1) The above reagents, (b) through (h), were put in a cuvette (d: 1.0 cm) and the mixture was preincubated at 37° C. for 2 minutes. The substrate solution (a) was then added and the resulting mixture was held at 37° C., absorbance at 500 nm was measured over a period of 3 to 5 minutes, and the change in absorbance per minute (ΔODsample) was determined from the linear portion of the plotted curve. For control, the same procedure as above was carried out, using distilled water as reference.
(§2) One unit of acetylpolyamine amidohydrolase is defined as its amount necessary to hydrolyze 1 μmole of acetylputrescine at 37° C. for one minute (or the amount necessary to form 0.5 μmole of quinoneimine pigment formed in the method for measuring the enzyme activity described above).
To 50 mM Tris-HCl buffer (pH 7.0) containing the present enzyme, was added each of the compounds being tested to a concentration of 0.1 mM or 1.0 mM. The mixture was incubated at 37° C. for 10 minutes, a sample solution was taken out, and its residual activity was measured according to the procedure described in [Method 1].

[3] = test system: E1: Enzyme derived from Streptomyces avellaneus; conditions: concentration of 1mM; acetylputrescine as substrate; cited from earlier work
[4] = test system: E3: Enzyme derived from Micrococcus luteus; conditions: cited from earlier work
[5] = test system: E2: Enzyme derived from Arthrobacter sp.; conditions: concentration of 1mM; acetylputrescine as substrate; cited from earlier work
[6] = test system: E2: Enzyme derived from Arthrobacter sp. (acetylpolyamine amidohydrolase); conditions: pH 7.0, cited from earlier work
[7] = test system: E1: Enzyme derived from Streptomyces avellaneus (acetylpolyamine amidohydrolase); conditions: cited from earlier work
[8] = molecular target: T2, acetylpolyamine amidohydrolase (the present enzyme, product purified to homogeneity); test: Enzyme activity on acetylpolyamine substrates, product purified to homogeneity (Method 2 / Method 3); type: biochemical, Mycoplana bullata; conditions: 37° C., phosphate and borate buffers, per substrate
Source text: [Method 2] (Assay when acetylputrescine, acetylcadaverine, N^1 -acetylspermidine and N^8 -acetylspermidine are used as substrate:)
The acetylpolyamine can be hydrolyzed by the acetylpolyamine amidohydrolase, as described in [Method 1], and the corresponding free polyamine thus formed is then oxidized by putrescine oxidase. Putrescine oxidase derived from Micrococcus rubens is known to have an activity upon putrescine, cadaverine and spermidine [Adachi, et al., Agric. Biol. Chem, 30, 1202 (1966)]. […] The actual analytical procedure is as described below.
as §1, with “added,” for “added”, “incubated” for “held”, “C. Absorbance” for “C., absorbance”
as §2
[Method 3] (Assay when acetylspermine is used as substrate:)
Acetylspermine is hydrolyzed by the action of acetylpolyamine amidohydrolase into free form of spermine. The free form of spermine can be oxidized by a polyamine oxidase derived from Aspergillus terreus to produce hydrogen peroxide. Two molar equivalents of hydrogen peroxide is formed from one molar equivalent of spermine. Thus, the enzyme activity can be measured by quantitative determination of the hydrogen peroxide according to the method described above. However, since the above polyamine oxidase also acts upon acetylspermine, it is impossible to exactly measure the activity of acetylpolyamine amidohydrolase by the standard assay. […] The actual procedure is described below.
Reagents (b) through (d) given in item (1) were put in a test tube and the mixture was preincubated at 37° C. for 2 minutes. The substrate solution (a) was then added, the resulting mixture was incubated at 37° C. for 10 minutes, and the reaction was stopped by addition of the termination (e). A sample solution (100 μl) was taken from the reaction mixture and subjected to HPLC as described above to separate free form of spermine from acetylspermine. Generally, acetylspermine is eluted at a position of 38 minutes after the start of elution and free form of spermine at a position of 41 minutes after the start of elution. A sample solution (200 μl), taken from the eluate containing free form of spermine, was mixed in a cuvette with reagents (a) through (e) given in item (2) above, the mixture was incubated at 37° C. for 10 minutes, and the absorbance at 755 nm was measured. For control, the same procedure as above was carried out using 200 μl of Elunt A in place of the sample solution, as reference.
The concentration of free form of spermine in the reaction mixture can be determined from a calibration curve previously prepared on the basis of aqueous soluitons of free form of spermine with different concentrations. If the concentration of free form of spermine contained in 150 μl of the reaction mixture is taken as P (mM), then the potency (A) for 1 ml of the enzyme solution can be expressed by the following equation: […]
The activities upon acetylputrescine, acetylcadaverine, N^1 -acetylspermidine and N^8 -acetylspermidine were measured by [Method 2] in a phosphate buffer (pH 9.0) at a substrate concentration of 0.833 mM, and the activity upon acetyl-spermine was measured by [Method 3] under the same conditions. […] Km values, determined from the Lineweaver-Burk plot, are also listed in the same table. […]

[9] = concentration of 1mM, acetylputrescine as substrate, no addition = 100%
[10] = compound 1.0 mM, 50 mM Tris-HCl pH 7.0, 37° C., 10 minutes, residual activity
[11] = concentration of 1mM, acetylputrescine as substrate
[12] = compound 1.0 mM, 50 mM Tris-HCl pH 7.0, 37° C., 10 minutes, residual activity, read-out: Relative Activity (%) at 1.0 mM
[13] = compound 0.1 mM, 50 mM Tris-HCl pH 7.0, 37° C., 10 minutes, residual activity

Molecule | Relative activity in presence of inhibitor/metal ion, the present enzyme [1, 9] [%] | Relative Activity (%) at 1.0 mM [2, 10] [%] | Relative activity in presence of inhibitor/metal ion, E1 [3] [%] | Relative activity in presence of inhibitor/metal ion, E3 [4, 11] [%] | Relative activity in presence of inhibitor/metal ion, E2 [5] [%] | further results
[N-]=[N+]=[N-].[Na+] [NaN3] | 90 | 95 | 93 | 98 | 99 | –
c1ccc(-c2ccccn2)nc1 [a,a'-Dipyridyl] | – | – | – | – | – | activity at 1000 µM [2, 12]: 92%
[Ni+2] [Ni^2+] | 81 | – | 3 | 33 | 55 | Inhibition of the present enzyme (in words) [1]: hardly inhibited
O=[N+]([O-])[O-].[Ag+] [AgNO3] | – | 41 | – | – | – | Relative Activity (%) at 0.1 mM [2, 13]: 107%; Inhibition of the present enzyme (in words) ([2]; purified to homogeneity): inhibited
Oc1cccc2cccnc12 [8-Hydroxyquinoline] | – | – | – | – | – | Relative activity in presence of inhibitor/metal ion, the present enzyme [1]: 3; Inhibition of the present enzyme (in words) [2]: considerably inhibited; Relative Activity (%) at 0.1 mM ([2]; pH 7): 57%; Relative Activity (%) at 1.0 mM ([2]; pH 7): 66%; Relative activity in presence of inhibitor/metal ion, E3 [4]: 98
[Mn+2] [Mn^2+] | 124 | – | 82 | 50 | 101 | –
[Mg+2] [Mg^2+] | 97 | – | 104 | 99 | 112 | Inhibition of the present enzyme (in words) ([2]; purified to homogeneity): inhibited
[Cu+2] [Cu^2+] | 99 | – | – | 26 | – | –
[Zn+2] [Zn^2+] | 100 | – | 3 | 4 | 32 | Inhibition of the present enzyme (in words) [1]: hardly inhibited; Inhibition of the present enzyme (in words) ([2]; purified to homogeneity): inhibited; also recorded: most remarkably
O=C(O)c1cc[c]([Hg][Cl])cc1 [pCMB, -p(Chloromercuri)benzoic acid] | 4 | 90 | 0 | 98 | 8 | Relative Activity (%) at 0.1 mM [2, 13]: 107%; Inhibition of the present enzyme (in words) ([2]; purified to homogeneity): slightly inhibited
O=C(O)CN(CCN(CC(=O)O)CC(=O)O)CC(=O)O [EDTA · 2Na] | – | – | – | – | – | Inhibition of the present enzyme (in words) [2]: no inhibitory action; activity at 1000 µM ([2]; pH 7, read-out: Relative Activity (%) at 1.0 mM): 97%
NO [Hydroxylamine] | 24 | – | – | – | – | –
[Cl-].[Cl-].[Mg+2] [MgCl2] | – | 85 | – | – | – | Relative Activity (%) at 0.1 mM [2, 13]: 87%
[Cl-].[Cl-].[Co+2] [CoCl2] | – | 105 | – | – | – | –
NNC(N)=O [Semicarbazide hydrochloride] | – | – | – | – | – | activity at 100 µM [2, 13]: 103%; activity at 1000 µM [2, 12]: 91%
[Cl][Ni][Cl] [NiCl2] | – | 90 | – | – | – | –
O=S(=O)(F)Cc1ccccc1 [Phenylmethanesulfonyl fluoride] | – | 90 | – | – | – | Relative Activity (%) at 0.1 mM [2, 13]: 86%; Inhibition of the present enzyme (in words) ([2]; purified to homogeneity): slightly inhibited
Acetylspermidine | – | – | – | – | – | Relative activity, E2 ([6]; activity against acetylputrescine defined as 100): 30%; Km [6]: 500 µM; Relative activity, E1 ([7]; pH 7.0, activity against acetylputrescine defined as 100): 9.1%; Km ([7]; pH 7.0, read-out: Km, E1): 1100 µM; Relative activity, St. avellaneus enzyme ([7]; reported reference data in Table 5, acetylputrescine = 100): 9.1%; Km ([7]; reported reference data in Table 5, read-out: Km, St. avellaneus enzyme): 1100 µM; Optimum pH [8]: 9
CCN(CC)C(=S)S [DDC, Diethyldithiocarbamate] | – | – | – | – | – | inhibition at 1000 µM [1, 9]: 0%; activity at 100 µM [2, 13]: 93%; activity at 1000 µM [2, 12]: 94%
[Cl-].[Cl-].[Zn+2] [ZnCl2] | – | 22 | – | – | – | Relative Activity (%) at 0.1 mM [2, 13]: 1%
c1cnc2c(c1)ccc1cccnc12 [o-Phenanthroline] | – | – | 14 | 33 | 94 | inhibition at 1000 µM [1, 9]: 68%; activity at 1000 µM [2, 12]: 95%; Inhibition of the present enzyme (in words) ([2]; purified to homogeneity): no inhibitory action
